Test results reported in patent US9566252B2, “Method for the alleviation of dyspareunia in women” (HORMOS MEDICAL LTD., priority 2000, dated 2017).
Like-named read-outs stand apart in the source and are kept apart here.

Legend:
vaginal epithelium = settings: for Change in maturity index for superficial cells (MI 3), mean: index 100 full estrogen, index 0 no estrogenicity; for Change in maturity index for parabasal cells (MI 1), mean: index 100 no estrogenicity, index 0 full estrogen; for Pathological changes in cervical smear samples: 3 months' treatment, any sample; for Change from baseline to post-treatment in karyopyknosis index for superficial cells, individual subjects: ospemifene 30, 60, 90 mg daily, raloxifene 60 mg daily, all cases except one
Protocol: Raloxifene (60 mg daily) was used as reference. […] There were 29 volunteers at each dose level, as well as in the raloxifene group. Ospemifene was administered in gelatine capsules containing either 30, 60 or 90 mg of ospemifene. […] The vaginal epithelium was assessed by karyopyknosis index which is a well known assessment method among the skilled persons. In this method, the vaginal fraction of the cervical smears is estimated as the percentage of the number of cells from different layers: the parabasal cell layer; the intermediate cell layer; and the superficial cell layer. Estrogenicity is seen by a shift towards superficial cell fraction. […] Samples were taken before and after the treatment (at 3 months).

vaginal dryness = experiment: Vaginal dryness symptoms by visual analogue scale (subjective estimates); type: in vivo, healthy postmenopausal female volunteers; settings: FIG. 2; for Effect on vaginal dryness, individuals' subjective estimate (visual analogue scale): change pre-treatment to 3 months, all ospemifene dosage levels (30, 60, 90 mg daily), raloxifene 60 mg daily
Protocol: The vaginal dryness symptoms were also assessed by using a visual analogue scale where the volunteers themselves recorded their subjective estimates. The scale is based on a 100-mm line on paper. The left end represents no symptom and the right end the worst possible symptom. The change from pre-treatment to 3 months estimates was assessed and considered to be indicative of the treatment efficacy.

endometrium = settings: for Increase in thickness of the endometrium, average: statistically not significant
Protocol: (§1) Tolerability and pharmacokinetics were also assessed.

[1] = clinical studies
Protocol: as §1

sexual activity = settings: of 70 patients followed up for 6 weeks
Source text: In the clinical study, where the effects of ospemifene on quality of life and cardiovascular parameters were studied, the patients were asked for sexual activity. The questionnaire included “worsening” or “no effect” on sexual activity. Improvement on sexual activity was not asked. When 70 patients had been followed up for 6 weeks, 27 of them had spontaneously reported to the investigators increased sexual activity. Similar reports were independently obtained from different centers of the study.

[2] = 30 mg daily perorally, 3 months
[3] = 60 mg daily perorally, 3 months
[4] = 90 mg daily perorally, 3 months

OCCOc1ccc(/C(=C(/CCCl)c2ccccc2)c2ccccc2)cc1 [Ospemifene, (deaminohydroxy)toremifene]
Change in maturity index for superficial cells (MI 3), mean (vaginal epithelium; [2]): +12.4 | Change in maturity index for parabasal cells (MI 1), mean (vaginal epithelium; [2]): −40 | Change in maturity index for superficial cells (MI 3), mean (vaginal epithelium; [3]): +5.5 | Change in maturity index for parabasal cells (MI 1), mean (vaginal epithelium; [3]): −26 | Change in maturity index for superficial cells (MI 3), mean (vaginal epithelium; [4]): +12.5 | Change in maturity index for parabasal cells (MI 1), mean (vaginal epithelium; [4]): −48 | Pathological changes in cervical smear samples (vaginal epithelium): No pathological changes | Change from baseline to post-treatment in karyopyknosis index for superficial cells, individual subjects (vaginal epithelium; 12 weeks' treatment): < 40 | Estrogenic effect in the cervical smear (vaginal epithelium; 30, 60, 90 mg daily, 3 months): weak but statistically significant estrogenic effect | Effect on vaginal atrophy (vaginal epithelium; 30, 60 and 90 mg daily, 3 months, elderly female volunteers): significant decrease in vaginal atrophy | Increase in karyopyknosis index for superficial cells, single highest case (vaginal epithelium; one case in the 90 mg group, 12 weeks' treatment): 45 | Effect on vaginal dryness, comparison of dose levels (vaginal dryness; 60 mg daily, 3 months): best result | Effect on vaginal dryness, individuals' subjective estimate (visual analogue scale) (vaginal dryness): clear decreasing effect | Increase in thickness of the endometrium, average (endometrium; 30 mg daily, 3 months): 0.2 mm | Increase in thickness of the endometrium, average (endometrium; 60 mg daily, 3 months): 0.5 mm | Increase in thickness of the endometrium, average (endometrium; 90 mg daily, 3 months): 0.5 mm | Estrogenic effect on endometrial histology (endometrium; 30, 60, 90 mg daily, 3 months): weak estrogenic effect | Malignant findings in the endometrium (endometrium; 30, 60, 90 mg daily, 3 months): no malignant findings | Measured values of endometrial thickness (endometrium; 30, 60, 90 mg daily, all measured values): smaller than 8 mm | Tolerability [1]: excellent tolerability | Patients spontaneously reporting increased sexual activity (sexual activity): 27

O=C(c1ccc(OCCN2CCCCC2)cc1)c1c(-c2ccc(O)cc2)sc2cc(O)ccc12 [Raloxifene, raloxifene, reference compound]
Change in maturity index for superficial cells (MI 3), mean (vaginal epithelium; [3]): −0.3 | Change in maturity index for parabasal cells (MI 1), mean (vaginal epithelium; [3]): −2 | Pathological changes in cervical smear samples (vaginal epithelium): No pathological changes | Change from baseline to post-treatment in karyopyknosis index for superficial cells, individual subjects (vaginal epithelium; 12 weeks' treatment): no one in the raloxifene group (FIG. 1D) had a significant change | Effect on vaginal dryness, individuals' subjective estimate (visual analogue scale) (vaginal dryness): only a minor decrease
